Experiments:
Experiment in all cases: relative viability (nuclei count vs DMSO), 5 days (fraction); higher = more cells survive
Bromopyruvate + OSI-027 = compound: C(C(=O)C(=O)O)Br [Bromopyruvate] + COc1cccc2cc(-c3nc([C@H]4CC[C@H](C(=O)O)CC4)n4ncnc(N)c34)[nH]c12 [OSI-027] (partner 0.5 µM)
In short: (§1)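 Cells from lung cancer lines were seeded into 1536-well plates and, one day later, dosed by pin tool. Treatments were either a single drug or a fixed dose of an anchor drug with five library-drug doses (not always all listed) in √10 steps. After 5 days, nuclei were stained in a one-step fixation (final 0.05% Triton X-100, 1% formaldehyde, 1 ug/ml Hoechst) and counted on 4× images, and relative viability is the treated-to-vehicle nuclei ratio, as the median of duplicate plates.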

[1] = compound: C(C(=O)C(=O)O)Br [Bromopyruvate] + Cc1cc(Nc2cc(N3CCN(C)CC3)nc(Sc3ccc(NC(=O)C4CC4)cc3)n2)n[nH]1 [Tozasertib] (partner 0.1 µM)
In short: as §1

Bromopyruvate + AZD7762 = compound: C(C(=O)C(=O)O)Br [Bromopyruvate] + NC(=O)Nc1cc(-c2cccc(F)c2)sc1C(=O)N[C@H]1CCCNC1 [AZD7762] (partner 0.2 µM)
In short: as §1

Bicalutamide + Alpelisib = compound: CC(O)(CS(=O)(=O)c1ccc(F)cc1)C(=O)Nc1ccc(C#N)c(C(F)(F)F)c1 [Bicalutamide] + Cc1nc(NC(=O)N2CCC[C@H]2C(N)=O)sc1-c1ccnc(C(C)(C)C(F)(F)F)c1 [Alpelisib] (partner 2 µM)
In short: as §1

Row | Cell Line | relative viability (Bromopyruvate + OSI-027; first compound 1 µM) | relative viability (Bromopyruvate + OSI-027; first compound 3.162 µM) | relative viability (Bromopyruvate + OSI-027; first compound 10 µM) | relative viability (Bromopyruvate + OSI-027; first compound 31.62 µM) | relative viability (Bromopyruvate + OSI-027; first compound 100 µM) | relative viability ([1]; first compound 1 µM) | relative viability ([1]; first compound 3.162 µM) | relative viability ([1]; first compound 10 µM) | relative viability ([1]; first compound 31.62 µM) | relative viability ([1]; first compound 100 µM) | relative viability (Bromopyruvate + AZD7762; first compound 1 µM) | relative viability (Bromopyruvate + AZD7762; first compound 3.162 µM) | relative viability (Bromopyruvate + AZD7762; first compound 10 µM) | relative viability (Bromopyruvate + AZD7762; first compound 31.62 µM) | relative viability (Bromopyruvate + AZD7762; first compound 100 µM) | relative viability (Bicalutamide + Alpelisib; first compound 0.08 µM) | relative viability (Bicalutamide + Alpelisib; first compound 0.253 µM) | relative viability (Bicalutamide + Alpelisib; first compound 0.8 µM) | relative viability (Bicalutamide + Alpelisib; first compound 2.53 µM)
1 | NCI-H2342 | 0.552 | 0.603 | 0.542 | 0.545 | 0.497 | 0.594 | 0.616 | 0.433 | 0.483 | 0.412 | 0.397 | 0.436 | 0.451 | 0.47 | 0.481 | – | – | – | –
2 | SK-MES-1 | 0.654 | 0.552 | 0.667 | 0.603 | 0.68 | 0.877 | 0.926 | 0.948 | 0.98 | 0.9 | – | – | – | – | – | 0.903 | 0.718 | 1.02 | 0.858
3 | NCI-H1993 | 0.623 | 0.513 | 0.525 | 0.549 | 0.539 | 0.626 | 0.629 | 0.697 | 0.578 | 0.598 | 0.821 | 0.872 | 0.994 | 0.851 | 0.982 | – | 0.693 | 0.708 | 0.717
4 | HCC-366 | 0.836 | 1.05 | 0.812 | 0.979 | 1.01 | 0.136 | 0.142 | 0.0931 | 0.12 | 0.0884 | 0.272 | 0.346 | 0.197 | 0.254 | 0.249 | 0.476 | 0.255 | 0.465 | 0.37
5 | 201T | 0.508 | 0.752 | 0.71 | 0.763 | 0.638 | 0.916 | 0.954 | 0.99 | 1.02 | 0.982 | 0.638 | 0.715 | 0.6 | 0.594 | 0.603 | 1.05 | 0.93 | 1.01 | 1
6 | HCC-827 | 0.779 | 0.799 | 0.803 | 0.778 | 0.805 | 0.375 | 0.391 | 0.386 | 0.421 | 0.435 | 0.175 | 0.195 | 0.198 | 0.203 | 0.19 | 0.965 | 0.79 | 1.03 | 0.958
7 | NCI-H650 | 0.584 | 0.545 | 0.575 | 0.501 | 0.59 | 0.656 | 0.756 | 0.804 | 0.714 | 0.698 | 0.931 | 1.18 | 0.934 | 1.05 | 0.945 | 1.34 | 1.04 | 1.35 | 0.814
8 | NCI-H2085 | 0.794 | 0.931 | 0.798 | 0.726 | 0.797 | 0.821 | 0.917 | 0.84 | 0.558 | 0.311 | 0.947 | 1.01 | 1.04 | 0.991 | 0.95 | 0.895 | 1.04 | 0.958 | 0.879
9 | NCI-H596 | 0.781 | 0.711 | 0.84 | 0.684 | 0.781 | 0.83 | 0.943 | 1.1 | 0.878 | 0.412 | 1.08 | 1.28 | 1.12 | 1.17 | 0.993 | 0.521 | 0.493 | 0.588 | 0.568
10 | SK-LU-1 | 0.378 | 0.316 | 0.303 | 0.317 | 0.305 | 0.328 | 0.349 | 0.333 | 0.382 | 0.266 | – | – | – | – | – | 1.12 | 0.962 | 1.41 | 0.848
11 | A-427 | 0.562 | 0.466 | 0.418 | 0.42 | 0.422 | 0.22 | 0.216 | 0.176 | 0.162 | 0.151 | 0.782 | 0.747 | 0.883 | 0.66 | 0.755 | 1.07 | 1.09 | 1.19 | 0.992
12 | NCI-H460 | 0.588 | 0.82 | 0.91 | 0.661 | 0.728 | 0.432 | 0.485 | 0.426 | 0.424 | 0.335 | 0.676 | 0.698 | 0.721 | 0.565 | 0.621 | 0.52 | 0.429 | 0.685 | 0.506
13 | NCI-H1703 | – | – | – | – | – | – | – | – | – | – | 0.119 | 0.124 | 0.138 | 0.13 | 0.0978 | 0.321 | 0.243 | 0.332 | 0.262
14 | NCI-H1792 | 0.798 | 0.79 | 0.782 | – | 0.649 | – | – | – | – | – | 0.678 | 0.783 | 0.792 | 0.798 | 0.655 | 0.722 | 0.656 | 0.794 | 0.665
15 | Calu-6 | – | – | – | – | – | – | – | – | – | – | – | – | – | – | – | 1.04 | 0.908 | 1.04 | 0.868
16 | SW 1573 | 0.751 | 0.674 | 0.73 | 0.475 | 0.0547 | 0.191 | 0.184 | 0.159 | 0.171 | 0.0582 | – | – | – | – | – | 0.678 | 0.639 | 0.831 | 0.689
17 | RERF-LC-KJ | 0.614 | 0.607 | 0.6 | 0.516 | 0.54 | 0.508 | 0.491 | 0.433 | 0.517 | 0.413 | 0.97 | 1.04 | 1.29 | 0.978 | 0.889 | 0.756 | 0.81 | 0.948 | 0.777
18 | EMC-BAC-2 | 0.384 | 0.382 | 0.397 | 0.397 | 0.405 | 0.295 | 0.289 | 0.317 | 0.267 | 0.314 | 1.04 | 1.16 | 1.09 | 1.04 | 1.1 | 0.702 | 0.674 | 0.791 | 0.694
19 | LK-2 | 0.235 | 0.2 | 0.21 | 0.223 | 0.218 | 0.171 | 0.169 | 0.174 | 0.179 | 0.177 | 0.423 | 0.458 | 0.266 | 0.474 | 0.387 | 1.21 | 0.878 | 1.44 | 1.16
20 | NCI-H2228 | 0.539 | 0.554 | 0.755 | 0.518 | 0.551 | 0.241 | 0.252 | 0.239 | 0.284 | 0.248 | – | – | – | – | – | 0.779 | 0.805 | 0.908 | 0.58

— the supplement of paper PMC10307832
